{
  "source": "patent US8835415B2",
  "about": "“Standardized composition, method of manufacture and use in the resolution of RNA virus infection” (priority 2009, dated 2014)",
  "system": "H1N1 virus, Resistant strain (6706)",
  "test": "microbe, parasite or virus in culture",
  "assay_type": "cell-based",
  "settings": "Influenza A virus, H1N1, MDCK",
  "note": "pEC50: −log10 of the molar value.",
  "data": [
    {"compound": "CCOC(=O)C1=C[C@@H](OC(CC)CC)[C@H](NC(C)=O)[C@@H](N)C1", "note": "[Tamiflu, Oseltamivir]", "values": [
      {"measurement": "pEC50", "result": "< 5.30"}
    ]}
  ]
}
